For 15 molecules, TGI results are on record in PubChem BioAssay (NCI).

Test systems include RPMI-8226 leukemia; CCRF-CEM leukemia; U251 CNS; NCI-H460 lung; OVCAR-5 ovarian; SF-295 CNS; M14 melanoma; NCI/ADR-RES ovarian; SK-OV-3 ovarian; DU-145 prostate.
Holding throughout (test): NCI tumour cell line growth inhibition, 48 h

Each structure is given as a SMILES string.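 Where inhibition never reached the appropriate level, the endpoint shown equals the highest concentration tested. Otherwise, values were interpolated linearly from a five-concentration, 48-hour dose response in 96-well plates. TGI: total growth inhibition.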

With `CN1COCc2cc3cc4c(cc3nc21)OCCO4`, the TGI in the experiment on RPMI-8226 leukemia was 62.5 µM; with CCRF-CEM leukemia, more than 100 µM; in the experiment with U251 CNS, more than 100 µM; in the experiment on NCI-H460 lung it was more than 100 µM; in the experiment on OVCAR-5 ovarian it was more than 100 µM; in the experiment with SF-295 CNS, more than 100 µM. The TGI in the experiment with M14 melanoma, in the experiment on NCI/ADR-RES ovarian and in the experiment with SK-OV-3 ovarian was more than 100 µM each time.
For the molecule `Cc1cn([C@H]2C[C@](C)(CO)N(C)O2)c(=O)[nH]c1=O`, the TGI in the experiment on RPMI-8226 leukemia, in the experiment on DU-145 prostate, in the experiment with U251 CNS, with NCI-H460 lung, in the experiment with OVCAR-5 ovarian and in the experiment with SF-295 CNS was more than 100 µM each time. The TGI in the experiment on M14 melanoma, in the experiment on NCI/ADR-RES ovarian and in the experiment on SK-OV-3 ovarian was more than 100 µM each time.
Regarding `O=C1CS(=O)C23c4cc5ccccc5n4CCC2CCCN13` (stereo not given), the TGI in the experiment on RPMI-8226 leukemia, with DU-145 prostate, with U251 CNS, with OVCAR-5 ovarian, in the experiment on SF-295 CNS and in the experiment on M14 melanoma was more than 100 µM each time. The TGI with NCI/ADR-RES ovarian and in the experiment with SK-OV-3 ovarian was more than 100 µM each time.
For the molecule `O=C(c1ccccc1)N1C(=S)N=C(Nc2ccccc2)C1=Nc1ccccc1`, the TGI in the experiment on RPMI-8226 leukemia, in the experiment on CCRF-CEM leukemia, with DU-145 prostate, in the experiment with U251 CNS, with NCI-H460 lung and in the experiment on OVCAR-5 ovarian was more than 100 µM in each case. Besides, the TGI with SF-295 CNS, with NCI/ADR-RES ovarian and in the experiment with SK-OV-3 ovarian was more than 100 µM each time.
Consider `CCOC(CN(C)C(=S)Nc1cccc2ccccc12)OCC`, for which the TGI with RPMI-8226 leukemia, with CCRF-CEM leukemia, with DU-145 prostate, with U251 CNS, in the experiment on NCI-H460 lung and in the experiment with SF-295 CNS was more than 10 µM in each case. Further, the TGI in the experiment on M14 melanoma, in the experiment on NCI/ADR-RES ovarian and with SK-OV-3 ovarian was more than 10 µM each time.
Consider `C[C@]1(S(=O)(=O)c2ccccc2)C[C@H]2N(Cc3ccccc3)[C@@H]1CCC21OCCO1`, for which the TGI with CCRF-CEM leukemia, in the experiment on DU-145 prostate, with U251 CNS, in the experiment on NCI-H460 lung, in the experiment on OVCAR-5 ovarian and in the experiment with SF-295 CNS was more than 100 µM in each case. For the same molecule, the TGI in the experiment on M14 melanoma, in the experiment on NCI/ADR-RES ovarian and in the experiment with SK-OV-3 ovarian was more than 100 µM throughout.
In the case of `COc1cc2c(cc1OC)C13CC[N+]4(C)CC5=CCOC6CC(=O)N2C1C6C5CC34[O-]` (stereo not given), the TGI with RPMI-8226 leukemia, in the experiment with CCRF-CEM leukemia, in the experiment on DU-145 prostate, in the experiment on U251 CNS, in the experiment on NCI-H460 lung and in the experiment with SF-295 CNS was more than 100 µM in each case. Moreover, the TGI with M14 melanoma, with NCI/ADR-RES ovarian and with SK-OV-3 ovarian was more than 100 µM in each case.
Consider `CCCCN(CCCC)C(=C(C(Cl)=C(Cl)Cl)[N+](=O)[O-])N(CCCC)CCCC`, for which the TGI in the experiment on RPMI-8226 leukemia is 58.7 µM; with DU-145 prostate it was more than 100 µM; with U251 CNS, more than 100 µM; with NCI-H460 lung, more than 100 µM; in the experiment on OVCAR-5 ovarian it was more than 100 µM; in the experiment with SF-295 CNS it was more than 100 µM. Further, the TGI in the experiment with M14 melanoma, in the experiment on NCI/ADR-RES ovarian and in the experiment with SK-OV-3 ovarian was more than 100 µM each time.
For `COc1cc(CNc2nc3cc(C(F)(F)F)ccc3nc2-c2ccccc2)cc(OC)c1OC`, the TGI in the experiment with RPMI-8226 leukemia, in the experiment with CCRF-CEM leukemia, with DU-145 prostate, with U251 CNS, in the experiment with NCI-H460 lung and in the experiment on SF-295 CNS was more than 100 µM in each case. Also, the TGI in the experiment with M14 melanoma was more than 100 µM; in the experiment on NCI/ADR-RES ovarian, 81.8 µM.
Regarding `O=C(O)CSC(NC(=O)C(C(F)(F)F)C(F)(F)F)(C(F)(F)F)C(F)(F)F`, the TGI in the experiment on RPMI-8226 leukemia, in the experiment with CCRF-CEM leukemia, with U251 CNS, in the experiment with OVCAR-5 ovarian, in the experiment with M14 melanoma and in the experiment with NCI/ADR-RES ovarian was more than 100 µM in each case. Moreover, the TGI in the experiment on SK-OV-3 ovarian was more than 100 µM.
Take `CCCOC(=O)NC(C)C(=O)NC(CCC(=O)NC(CCCC(N)C(=O)O)C(=O)NC(C)C(=O)O)C(=O)O` (stereo not given): the TGI in the experiment on RPMI-8226 leukemia was 32.2 µM; in the experiment with CCRF-CEM leukemia, 36.9 µM; in the experiment on DU-145 prostate, 65.3 µM; with U251 CNS it was 55.9 µM; with NCI-H460 lung, more than 100 µM; with OVCAR-5 ovarian it was more than 100 µM. The results for the TGI in the experiment with SF-295 CNS, in the experiment on M14 melanoma and in the experiment on NCI/ADR-RES ovarian were 30.9 µM, 40.6 µM and 37 µM, respectively.
With `CCOC(=O)C(C)c1nc2c(Cl)c3ncccc3cc2[nH]c1=O` (stereo not given), the TGI in the experiment with RPMI-8226 leukemia was more than 100 µM; in the experiment on CCRF-CEM leukemia, 68.4 µM; in the experiment on DU-145 prostate, more than 100 µM; in the experiment on U251 CNS it was more than 100 µM; in the experiment on OVCAR-5 ovarian, more than 100 µM; with SF-295 CNS, more than 100 µM. In addition, the TGI in the experiment with M14 melanoma, in the experiment on NCI/ADR-RES ovarian and in the experiment with SK-OV-3 ovarian was more than 100 µM each time.
In the case of `CC1=CC(=O)CC2(C)CCC(C(C)CC(=O)CC(C)C)CC12` (stereo not given), the TGI was 60.8 µM in the experiment with RPMI-8226 leukemia; 61.2 µM with CCRF-CEM leukemia; more than 100 µM in the experiment with DU-145 prostate; more than 100 µM in the experiment with U251 CNS; more than 100 µM with NCI-H460 lung; more than 100 µM with OVCAR-5 ovarian. The figures for the TGI with SF-295 CNS, with M14 melanoma and with NCI/ADR-RES ovarian were more than 100 µM, 32.1 µM and more than 100 µM, respectively.
On to `Cc1ccc(-c2c(C#N)c(-c3ccc([N+](=O)[O-])cc3)c(C#N)c(=O)n2NS(=O)(=O)c2ccccc2)cc1`, for which the TGI with CCRF-CEM leukemia was 58.3 µM; in the experiment on U251 CNS, more than 100 µM; with NCI-H460 lung, more than 100 µM; with OVCAR-5 ovarian, more than 100 µM; with SF-295 CNS, more than 100 µM; in the experiment with M14 melanoma it was more than 100 µM. Moreover, the TGI with NCI/ADR-RES ovarian and in the experiment with SK-OV-3 ovarian was more than 100 µM throughout.
With `CCCCC/C(C=O)=C\c1ccccc1`, the TGI in the experiment with RPMI-8226 leukemia, with CCRF-CEM leukemia, in the experiment with DU-145 prostate, with U251 CNS, in the experiment with NCI-H460 lung and in the experiment with SF-295 CNS was more than 100 µM throughout. Also, the TGI with M14 melanoma, in the experiment with NCI/ADR-RES ovarian and in the experiment on SK-OV-3 ovarian was more than 100 µM in each case.
